According to patent US8012975B2, “Antitumoral analogs of ET-743” (Pharma Mar, S.A., priority 2000, dated 2011):
pIC50: −log10 of the molar value. Like-named read-outs stand apart in the source and are kept apart here.

What was measured:
MC116 = assay: Cytotoxic activity (M) panel, Lymphoma undifferentiated MC116; details: Homo sapiens, MC116, read-out: CYTOTOXIC ACTIVITY (M) MC116, leukemias & lymphomas, Lymphoma undifferentiated, line MC116
HL60 = assay: cells; details: Homo sapiens, HL-60, read-out: CYTOTOXIC ACTIVITY (M) HL60, leukemias & lymphomas, ALL Promyelocytic leukemia, line HL60
RAMOS [1] = assay: cells; details: Homo sapiens, read-out: CYTOTOXIC ACTIVITY (M) RAMOS, leukemias & lymphomas, Lymphoma Burkitts B celll, line RAMOS
Hut 78 = assay: Cytotoxic activity (M) panel, Lymphoma Cutaneus T cell Hut 78; details: Homo sapiens, HuT78, read-out: CYTOTOXIC ACTIVITY (M) Hut 78, leukemias & lymphomas, Lymphoma Cutaneus T cell, line Hut 78
Molt 3 [2] = assay: Cytotoxic activity (M) panel, Acute lymphoblastic Molt 3; details: Homo sapiens, MOLT-3, read-out: CYTOTOXIC ACTIVITY (M) Molt 3, leukemias & lymphomas, ALL Acute lymphoblastic, line Molt 3
Hs746t = assay: Cytotoxic activity (M) panel, Gastric Hs746t; details: Homo sapiens, read-out: CYTOTOXIC ACTIVITY (M) Hs746t
PANC-1 = assay: Cytotoxic activity (M) panel, Pancreas PANC-1; details: Homo sapiens, PANC-1, read-out: CYTOTOXIC ACTIVITY (M) PANC-1
MEL-28 = assay: Cytotoxic activity (M) panel, Melanoma Mel-28; details: Homo sapiens, SK-MEL-28, read-out: CYTOTOXIC ACTIVITY (M) Mel-28
CHSA = assay: Cytotoxic activity (M) panel, Chondrosarcoma CHSA; details: read-out: CYTOTOXIC ACTIVITY (M) CHSA
SW-694 = assay: Cytotoxic activity (M) panel, Fibrosarcoma SW-694; details: read-out: CYTOTOXIC ACTIVITY (M) SW-694
A549 = assay: Cytotoxic activity (M) panel, NSCL A549; details: Homo sapiens, A549, read-out: CYTOTOXIC ACTIVITY (M) A549
HT-29 = assay: Cytotoxic activity (M) panel, Colon HT-29; details: Homo sapiens, HT-29, read-out: CYTOTOXIC ACTIVITY (M) HT-29
SK-HEP-1 = assay: Cytotoxic activity (M) panel, Liver SK-HEP-1; details: Homo sapiens, SK-HEP1, read-out: CYTOTOXIC ACTIVITY (M) SK-HEP-1
5637 = assay: Cytotoxic activity (M) panel, Bladder 5637; details: read-out: CYTOTOXIC ACTIVITY (M) 5637
786-O = assay: Cytotoxic activity (M) panel, Renal 786-O; details: Homo sapiens, 786-0, read-out: CYTOTOXIC ACTIVITY (M) 786-O
Y-79 = assay: Cytotoxic activity (M) panel, Retinoblastoma Y-79; details: Homo sapiens, Y79, read-out: CYTOTOXIC ACTIVITY (M) Y-79
FADU = assay: Cytotoxic activity (M) panel, Pharnynx FADU; details: Homo sapiens, read-out: CYTOTOXIC ACTIVITY (M) FADU
OSA-FH = assay: Cytotoxic activity (M) panel, Osteosarcoma OSA-FH; details: read-out: CYTOTOXIC ACTIVITY (M) OSA-FH
PC3 = assay: Cytotoxic activity (M) panel, Prostate PC3; details: Homo sapiens, PC-3, read-out: CYTOTOXIC ACTIVITY (M) PC3
U-937 = assay: Cytotoxic activity (M) panel, Lymphoma Histiocytic U-937; details: Homo sapiens, U-937, read-out: CYTOTOXIC ACTIVITY (M) U-937
K562 = assay: cells; details: Homo sapiens, K562, read-out: CYTOTOXIC ACTIVITY (M) K562
H9 = assay: cells; details: Homo sapiens, H9, read-out: CYTOTOXIC ACTIVITY (M) H9, leukemias & lymphomas, Lymphoma T-cell, line H9
Molt 3 [3] = system: Molt 3
RAMOS [4] = system: RAMOS
SK-OV-3 = assay: Cytotoxic activity (M) panel, Ovary SK-OV-3; details: Homo sapiens, SK-OV-3, read-out: CYTOTOXIC ACTIVITY (M) SK-OV-3
LNCAP = assay: Cytotoxic activity (M) panel, Prostate LNCAP; details: Homo sapiens, read-out: CYTOTOXIC ACTIVITY (M) LNCAP
MX-1 = assay: Cytotoxic activity (M) panel, Breast MX-1; details: Homo sapiens, MX1, read-out: CYTOTOXIC ACTIVITY (M) MX-1
DU-145 = assay: Cytotoxic activity (M) panel, Prostate DU-145; details: Homo sapiens, DU-145, read-out: CYTOTOXIC ACTIVITY (M) DU-145
NCI-H187 = assay: Cytotoxic activity (M) panel, SCL NCI-H187; details: Homo sapiens, NCI-H187, read-out: CYTOTOXIC ACTIVITY (M) NCI-H187

SMILES	IC50 (MC116) [M]	IC50 (HL60) [M]	IC50 (RAMOS [1]) [M]	IC50 (Hut 78) [M]	IC50 (Molt 3 [2]) [M]	IC50 (Hs746t) [M]	IC50 (PANC-1) [M]	IC50 (MEL-28) [M]	IC50 (CHSA) [M]	IC50 (A549) [M]	IC50 (HT-29) [M]	IC50 (SK-HEP-1) [M]	IC50 5637 [M]	IC50 (786-O) [M]	IC50 (FADU) [M]	IC50 (OSA-FH) [M]	IC50 (PC3) [M]	IC50 (U-937) [M]	IC50 (K562) [M]	IC50 (H9) [M]	further results
COc1c(C)cc2c(c1O)[C@@H]1C3Cc4c(OC(C)=O)c(C)c5c(c4[C@H](CNC(=O)Cc4ccccc4)N3[C@@H](O)[C@H](C2)N1C)OCO5 (stereo partly shown) [drawing 224]	1.13e-08	3.97e-10	7.15e-09	7.46e-09	2.54e-09																
COc1c(C)cc2c(c1O)[C@@H]1C3Cc4c(OC(C)=O)c(C)c5c(c4[C@H](COC(=O)CCc4ccccc4)N3[C@@H](O)[C@H](C2)N1C)OCO5 (stereo partly shown) [drawing 235]						2.95e-08	5.68e-10	2.23e-08	1.55e-05	8.22e-06	8.99e-09	1.29e-09	7.88e-10	9.23e-10	5.4e-11	1.29e-09	7.71e-10				IC50 (SW-694): 8.53e-06 M; IC50 (Y-79): 1.03e-08 M
COc1c(C)cc2c(c1O)[C@@H]1C3Cc4c(OC(C)=O)c(C)c5c(c4[C@H](CNC(=O)[C@H](C)NC(=O)CCc4ccccc4)N3[C@@H](O)[C@H](C2)N1C)OCO5 (stereo partly shown) [drawing 222]		5.92e-09	5.26e-11 to 1.1e-10	9.9e-10	7.53e-12													5.15e-10	1.09e-08	4.48e-09	
COc1c(C)cc2c(c1O)[C@@H]1C3Cc4c(OC(C)=O)c(C)c5c(c4[C@H](CNC(=O)CCc4ccccc4)N3[C@@H](O)[C@H](C2)N1C)OCO5 (stereo partly shown) [drawing 221]		9.38e-09		6.21e-11														3.06e-11	2.33e-07	1.99e-11	pIC50 (Molt 3 [3]): 13.81; pIC50 (RAMOS [4]): 12.11
COc1c(C)cc2c(c1O)[C@@H]1C3Cc4c(OC(C)=O)c(C)c5c(c4[C@H](CNC(=O)/C=C/c4cccc(C(F)(F)F)c4)N3[C@@H](O)[C@H](C2)N1C)OCO5 (stereo partly shown) [drawing 211]						7.9e-12	7.22e-11	2.6e-10	3.24e-10	3.25e-09	7.84e-10	1.79e-12	6.02e-10	6.58e-12	5.41e-11		6.65e-09				IC50 (SK-OV-3): 4.39e-11 M; IC50 (LNCAP): 5.45e-10 M; IC50 (SW-694): 9.91e-10 M; IC50 (MX-1): 1.65e-06 M; IC50 (DU-145): 5.73e-10 M
CCCC(=O)OC[C@H]1c2c(c(OC(C)=O)c(C)c3c2OCO3)CC2[C@H]3c4c(cc(C)c(OC)c4O)C[C@@H]([C@H](O)N21)N3C (stereo partly shown) [drawing 236]						7.05e-07	1.28e-08	1.25e-08	2.95e-08	8.49e-09	1.34e-08	6.12e-08	3.02e-08	1.13e-08	2.47e-08	5.01e-08	6.18e-10				IC50 (SK-OV-3): 3.55e-08 M; IC50 (LNCAP): 3.29e-07 M; IC50 (NCI-H187): 2.33e-10 M; IC50 (MX-1): 4.75e-08 M; IC50 (DU-145): 1.17e-08 M; IC50 (Y-79): 2.64e-09 M
CCCC(=O)OC[C@H]1c2c(c(OC(C)=O)c(C)c3c2OCO3)CC2[C@H]3c4c(cc(C)c(OC)c4O)C[C@@H]([C@H](O)N21)N3C (stereo partly shown) [drawing 240]	1.51e-08		9.09e-09	2.06e-08	4.63e-08													1.03e-08	2.11e-08	6.76e-08	
CCC(=O)NC[C@H]1c2c(c(OC(C)=O)c(C)c3c2OCO3)CC2[C@H]3c4c(cc(C)c(OC)c4O)C[C@@H]([C@H](O)N21)N3C (stereo partly shown) [drawing 231]	1.04e-09	4.93e-10			9.86e-10														1.87e-08	1.2e-08	
COc1c(C)cc2c(c1O)[C@@H]1C3Cc4c(OC(C)=O)c(C)c5c(c4[C@H](CNC(=O)[C@H](C)NC(=O)Cc4ccccc4)N3[C@@H](O)[C@H](C2)N1C)OCO5 (stereo partly shown) [drawing 223]	1.41e-09	1.23e-10	8.85e-10	1.06e-08	8.85e-10														4.45e-08	1.14e-08	
COc1c(C)cc2c(c1O)[C@@H]1C3Cc4c(OC(C)=O)c(C)c5c(c4[C@H](COC(=O)/C=C/c4cccc(C(F)(F)F)c4)N3[C@@H](O)[C@H](C2)N1C)OCO5 (stereo partly shown) [drawing 237]	1.69e-08		8.86e-09	6.47e-08	1.44e-08													7.6e-08	1.56e-07	1.56e-07	
CCCCCC(=O)NC[C@H]1c2c(c(OC(C)=O)c(C)c3c2OCO3)CC2[C@H]3c4c(cc(C)c(OC)c4O)C[C@@H]([C@H](O)N21)N3C (stereo partly shown) [drawing 230]	3.81e-09	1.5e-08	1.1e-09	1.97e-09	3.87e-09													1.08e-09	6.89e-08	1.08e-08	
CCCCCC(=O)NC[C@H]1c2c(c(OC(C)=O)c(C)c3c2OCO3)CC2[C@H]3c4c(cc(C)c(OC)c4O)C[C@@H]([C@H](O)N21)N3C (stereo partly shown) [drawing 226]						9.19e-09	1e-09	1.15e-09	2.1e-09	9.41e-09	8.97e-09	1.08e-09	2.84e-10	1.72e-09	1.39e-08	1.3e-09	9.32e-10				
COc1c(C)cc2c(c1O)[C@@H]1C3Cc4c(OC(C)=O)c(C)c5c(c4[C@H](CNC(=O)[C@H](C)NC(=O)C(F)(F)F)N3[C@@H](O)[C@H](C2)N1C)OCO5 (stereo partly shown) [drawing 212]						2.18e-09	4.17e-09	3.17e-09	6.77e-09	7.68e-06	1.97e-08	6.01e-11	3.42e-10	1.59e-09	1.58e-09	1.39e-09	2.15e-09				IC50 (SK-OV-3): 1.02e-07 M; IC50 (LNCAP): 2.17e-10 M; IC50 (NCI-H187): 9.57e-10 M; IC50 (DU-145): 1.83e-07 M; IC50 (Y-79): 7.36e-10 M
